Measured values from patent US8617563B2, “Antichlamydial agents” (Duke University, priority 2011, dated 2013).
“Also recorded” adds a separate entry of the source. Where no end group is shown, it is not given here.

Assays:
[1] = system: C. caviae CPAF; test: GST-IncC cleavage by lysate of C. caviae (GPIC) infected cells; assay type: biochemical; settings: infected whole cell lysate
Method: (§1) Cells were infected with an MOI of 1 and treated with CPAF inhibitor (SEQ ID NO:7) or control (SEQ ID NO:11) peptides at 12 hpi, fixed at 24 hpi and analyzed by IF with anti-L2 polyclonal antisera. Inclusion size was determined by measuring the inclusion diameter in μm by confocal microscopy of 50 infected cells. The number of cells with fragmented inclusions was determined by counting the number of infected cells out of 50 with more than one inclusion. (C) Sequence alignment and % sequence identify of full length CPAF and predicted inhibitory peptide sequence between C. trachomatis serovar LGV-L2, Chlamydia muridarum, and Chlamydophila caviae was determined using Geneious software (available at the Geneious website). […] GPIC or C. muridarum infected whole cell protein lysate was preincubated with SEQ ID NO:7 peptide or SEQ ID NO:11 control peptide, mixed with GST-IncC at 37° C., resolved by SDS-PAGE and stained with Coomassie blue. […] Inhibition of C. muridarum (E) and C. ceviae (F) growth was determined by counting the number of recovered IFUs. […] Inclusions were detected by IF with anti-LGV-L2 (A, B, E) antisera or anti-chlamydial LPS (F) monoclonal antibodies, and host nuclei sere detected by staining.

[2] = system: C. muridarum; test: C. muridarum growth in HeLa cells (recovered IFUs); assay type: cell-based; settings: infected HeLa cells, recovered IFUs
Method: as §1

[3] = system: HeLa cells pre-infected with L2; test: Secondary EB infection of pre-infected HeLa cells (Tarp translocation, stability, EB entry); assay type: cell-based, C. trachomatis
Method: FIG. 8 depicts (A-C(I-IV)) Tarp translocated by EBs is a target of CPAF-mediated degradation. Uninfected and HeLa cells pre-infected with L2 for 30 hrs were treated with inhibitory peptides and infected with EBs for 10 min Tarp translocation was indirectly visualized with an anti-phosphotyrosine antibody (A) and quantified by counting 50 separate cells (B). The stability of newly translocated Tarp was assessed by infecting cells as in (A) but with S^35-labeled EBs, followed by sequential immunoprecipitation of Tarp and MOMP and Phosphoimager analysis of precipitated material (C (I-IV)). Tarp is degraded in pre-infected HeLa cells in a CPAF-dependent manner. (D) Effective inhibition of CPAF activity by inhibitory peptide. IC50 values were determined by assessing CPAF cleavage of an Abz-tagged CPAF substrate (SEQ ID NO:9) by HPLC. Assays were performed the presence of increasing amount of inhibitors. […] CPAF cleavage of GST-chlamydial substrates was performed as in FIG. 4B but in the presence of SEQ ID NO:7 and SEQ ID NO:11 peptides (E). For in vivo inhibition effects on Chlamydia (L2), infected HeLa cells were treated with peptides at 12 hpi, and harvested at 30 hpi (F). […] (G and H) CPAF restricts EB entry into preinfected cells. Cells were infected as in (A), except that the secondary infections (30 min) were performed with fluorescently labeled EBs and infected cells were not permeabilized. […] Extracellular bacteria were determined. […] The number of internalized EBs was quantified per cell (H). […]
Next, HeLa cells or inclusion-containing HeLa cells were infected with ^35S-radiolabeled EBs, followed by immunoprecipitation of Tarp at various times after infection to determine the stability of translocated Tarp under these conditions. […] Tarp and MOMP were immunoprecipitated using anti-Tarp and anti-MOMP protein A sepharose beads (available from GE Healthcare), detected in a Typhoon9410 Variable Image Phosphor Imager (available from Amersham Biosciences), and quantified using ImageQuant 5.1TL software (available from GE Healthcare). […]

[4] = system: Caspase-1; test: Caspase-1 activity in infected cells (FLICA, flow cytometry); assay type: cell-based, human; settings: fluorescently labeled caspase-1 substrate
Method: FIG. 13 depicts (A) that Caspase-1 inhibitors block Chlamydia-mediated cell death. Infected cells were treated with the Caspase-1 inhibitor Ac-YVAD-CMK at 2 hpi, and increasing concentrations of CPAF inhibitor added at 12 hpi. Cells were fixed and the percentage of cells with condensed nuclei determined at 24 hpi. (B) Enhanced Caspase-1 activation in infected cells lacking CPAF activity. Infected cells were labeled with a cell-permeable fluorescent substrate of Caspase-1 and treated with inhibitory peptides, and Caspase-1 activity was monitored by flow cytometry. (C) Caspase-1 and ASC are required for Chlamydia-mediated host cell death. […] Chlamydia replication and generation of IFUs in MLFs was assessed as in FIG. 9. […]
Subsequent experiments tested whether CPAF inhibition led to the onset of apoptosis in infected cells. […] Apoptotic cells were identified with an AnnexinV-FLOUS Staining Kit (available from Roche) and activation of Caspase-1 was determined by labeling active Caspase-1 with a Carboxyfluorescein FLICA Detection Kit (available from Immunochemistry) and analyzed in a FACScanner (available from BD Biosciences). […] Consistent with result, Caspase-3 cleavage, another characteristic of apoptotic cell death, was not detected (FIG. 11C).

## SLFYSPMVPHFWAELRNHYATSGLKRRRRRRRRR-NH2 [SEQ ID NO:7]
[1]
  Inhibition of C. caviae CPAF: not sensitive to inhibition; also recorded: but not C. ceviae CPAF
[2]
  C. muridarum replication: blocked C. muridarum replication; also recorded: impairs growth in C. muridarum
[3]; pre-infected HeLa cells (30 h), 12 μM peptide
  Accumulation of Tyr-phosphorylated proteins at EB attachment sites: restored the accumulation
[3]; pre-infected HeLa cells, 35S-labeled EBs, 12 μM peptide
  Degradation of Tarp in pulse-chase experiments: blocked the degradation of Tarp
[3]; secondary infection 30 min, labeled EBs
  EB entry into preinfected cells: increased EB entry
[4]
  Caspase-1 activity in infected cells: significantly increased
